SMILES strings stand for the structures. Non-standard residues stand in square brackets, D forms with d. Residues, ends and D or L forms follow the SMILES beside them. *: point of attachment. Phe(2-Me) = Cc1ccccc1C[CH](N)C(=O)O; Tle = CC(C)(C)[CH](N)C(=O)O; X3 = CC(C)(C)OC(=O)CCC(=O)*; X4 = CCC(N*)C(OC)OC; OtBu = CC(C)(C)O* Some results are limits rather than exact numbers.

The text below walks through data of a melting point compilation (Tetko et al.).

Turning to `CCOC(=O)COc1cccc2c1CCc1sc(S(=O)CC(c3ccccc3)c3ccccc3)nc1-2` (configuration not stated), the melting point is 127 to 129 °C. Next, `O=C(O)c1ccnc(F)c1`: 195 to 197 °C; `CC(C)(C)c1cc(C(C)(C)C)c(OP2OP(Oc3c(C(C)(C)C)cc(C(C)(C)C)cc3C(C)(C)C)OP(Oc3c(C(C)(C)C)cc(C(C)(C)C)cc3C(C)(C)C)O2)c(C(C)(C)C)c1` (configuration not stated): 226 to 244 °C; `CC(=O)OCC(COC(C)=O)NC(=O)c1c(I)c(NC(=O)OCC2CO2)c(I)c(C(=O)NC(COC(C)=O)COC(C)=O)c1I` (configuration not stated): 228 to 230 °C. As to `CCC(=O)OC1(C(=O)C(O)OC(=O)C(NC(=O)C2CCCN2C(=O)C(C)NC(=O)C(C)NC(=O)N(c2ccccc2)c2ccccc2)C(C)C)CCC2C3CC(C)C4=CC(=O)C=CC4(C)C3C(O)CC21C` (configuration not stated), the melting point fell in the range of 150 to 152 °C. Next, `CCCCCCCCCCCCN(CCCCCCCCCCCC)S(=O)(=O)c1cc(NS(=O)(=O)c2ccc(NC(C)=O)c3c(O)c(N=Nc4ccccc4OC)ccc23)c(O)c2ccccc12`: 200 to 202 °C; `CCCSC(=O)c1ccc([Si](CCC(F)(F)C(F)(F)C(F)(F)C(F)(F)C(F)(F)C(F)(F)C(F)(F)C(F)(F)C(F)(F)C(F)(F)F)(CCC(F)(F)C(F)(F)C(F)(F)C(F)(F)C(F)(F)C(F)(F)C(F)(F)C(F)(F)C(F)(F)C(F)(F)F)CCC(F)(F)C(F)(F)C(F)(F)C(F)(F)C(F)(F)C(F)(F)C(F)(F)C(F)(F)C(F)(F)C(F)(F)F)cc1`: 69 to 71 °C; `O=[N+]([O-])c1cc(Sc2ccc(-c3c(S(=O)c4ccc(Cl)c([N+](=O)[O-])c4-c4ccc(Sc5ccc(Cl)c([N+](=O)[O-])c5)cc4)ccc(Cl)c3[N+](=O)[O-])cc2)ccc1Cl`: 144 to 146 °C. Regarding `COc1cc(C2c3cc4c(cc3C(NC(=O)CNCCCN(CCCCNC(=O)OCc3ccccc3)C(=O)OCc3ccccc3)C3COC(=O)C23)OCO4)cc(OC)c1O` (configuration not stated), the melting point was 255 °C.

In turn, `CCCCCCCCCCCCCCCCS(=O)(=O)Nc1ccc2c(c1)C(NS(=O)(=O)CCCCCCCCCCCCCCCC)(c1ccccc1)C=N2` (configuration not stated) had a melting point of 210 to 212 °C. Under `CCCCC(Cc1cc(C(C)(C)C)c(O)c(C(C)(C)C)c1)(C(=O)OC1CC(C)(C)N(OC2CCCCC2)C(C)(C)C1)C(=O)OC1CC(C)(C)N(OC2CCCCC2)C(C)(C)C1` stands 184 to 185 °C.

Compound `CC(C)[C@H](NC(=O)N1CCN(Cc2ccccc2)CC1)C(=O)N[C@@H](Cc1ccccc1)[C@@H](O)[C@H](O)[C@H](Cc1ccccc1)NC(=O)[C@@H](NC(=O)N1CCN(Cc2ccccc2)CC1)C(C)C` gave a melting point of 178 to 179 °C.

`C=CCOc1ccc(C[C@H](NC(=O)OC(C)(C)C)C(=O)N[C@H](C(=O)OC)C(C)C)cc1` registered a melting point of 74 to 76 °C.

Compound `CCN(C(=O)NC)C1C(Cl)=C(OC2=C(Cl)C(N(CC)C(=O)NC)C(c3ccccc3C(F)(F)F)([N+](=O)[O-])C=C2)C=CC1(c1ccccc1C(F)(F)F)[N+](=O)[O-]` (configuration not stated) registered a melting point of 128 °C. Next, `CC(C)CCCC(C)C1CCC2C3CC=C4CC(N(CCCNC(=O)CCNC(=O)CCNC(=O)CCCCCNc5ccc([N+](=O)[O-])cc5[N+](=O)[O-])S(=O)(=O)c5ccccc5[N+](=O)[O-])CCC4(C)C3CCC12C` (configuration not stated): 106 to 108 °C. Compound `COc1cc(OC)c(/C=C/C(c2ccc(OC)c(NS(=O)(=O)C(F)(F)F)c2)S(=O)(=O)C(/C=C/c2c(OC)cc(OC)cc2OC)c2ccc(OC)c(NS(=O)(=O)C(F)(F)F)c2)c(OC)c1` (configuration not stated) showed a melting point of 144 to 146 °C. Next, `CCCc1nc(C(C)(C)O)c(C(=O)OC2OC(=O)c3ccccc32)n1Cc1ccc(-c2ccccc2-c2nnnn2C(c2ccccc2)(c2ccccc2)c2ccccc2)cc1` (configuration not stated): 118 to 120 °C; `Oc1c(Br)c(Br)c(-c2c(Br)c(Br)c(O)c(Br)c2Br)c(Br)c1Br`: 282 °C. As for `CCCCCCCCCCCCCCCC(=O)OCC(CSCC(NC(=O)OCc1cccc2c1Cc1ccccc1-2)C(=O)OC(C)(C)C)OC(=O)CCCCCCCCCCCCCCC` (mixture of isomers), the melting point lay within 52 to 54 °C. Under `CCc1nc(OC)c(NC(=O)N2CCN(c3cc(OC)c(OC)c(OC)c3)CC2)cc1C(=O)NC(C)C(=O)Nc1cc(CO)cc(Nc2c3ccccc3nc3ccccc23)c1` (configuration not stated) stands 205 to 207 °C.

`CS(C)(=O)=NC(=O)c1cccc(Oc2ccc(C(F)(F)F)cc2Cl)c1` had a melting point of 110 to 113 °C. For the compound `CC(c1cc(C(C)(C)C)cc(C(C)(C)C)c1O)c1cc(C(C)(C)C)cc(C(C)(C)C)c1Op1oc2c(C(C)(C)C)cc(C(C)(C)C)cc2c2cc(C(C)(C)C)cc(C(C)(C)C)c2o1` (configuration not stated), the melting point lay within 273 to 277 °C.

`Cc1cc(-n2ccnc2)c2cccc(OCc3c(Cl)ccc(S(=O)(=O)N4CCCC4C(=O)NCC4CCN(C(=O)CCCC(=O)OC(C)(C)C)CC4)c3Cl)c2n1` (configuration not stated) returned a melting point of 112 °C.

On to `COc1ccc([C@@H]2Sc3ccccc3N(CCN(C)C)C(=O)[C@@H]2OC(=O)CCC(=O)O[C@H]2C(=O)N(CCN(C)C)c3ccccc3S[C@H]2c2ccc(OC)cc2)cc1` (relative stereo), for which the melting point is 112 to 115 °C. Under `CCOc1cc(C(=O)N2CCC(CCN3CCC(C(=O)c4nc5ccccc5n4Cc4ccc(F)cc4)CC3)(c3ccc(OC)c(OC)c3)C2)cc(OCC)c1OCC` (configuration not stated) stands 139 to 141 °C; under `CCCCCc1ccc(OCCCCCCOc2ccc(-c3ccc4c5c(c(C(=O)OCC)cc4c3)C=CC(c3ccccc3)(c3ccc(N4CCCCC4)cc3)O5)cc2)cc1` (configuration not stated), 85 to 86 °C; under `O=C(c1ccccc1)c1ccc(C(Cl)(Cl)Cl)cc1`, 109 to 111 °C. Compound `CC(=O)Oc1ccc(-c2cnc(N(S(=O)(=O)Cc3ccc(I)cc3)S(=O)(=O)Cc3ccc(I)cc3)c(Cc3ccccc3)n2)cc1` had a melting point of 166 to 167 °C. Next, `[C-]#[N+]C(C)C(=O)N(c1ccccc1)C(C)C` (configuration not stated): 47 to 50 °C; `CC(C)CCCC(C)C1CCC2C3CC=C4CC(N(CCCNC(=O)CCNC(=O)CCNC(=O)CCCCCNc5ccc([N+](=O)[O-])c6nonc56)S(=O)(=O)c5ccccc5[N+](=O)[O-])CCC4(C)C3CCC12C` (configuration not stated): 113 to 114 °C; `CCCCCCCCCCCCCCCCCCCCCCCCCC(C)=CCCC(C)=CCCC(C)=CCCC(C)=CCCC(C)=CCCC(C)=CCCC(C)=CCCC(C)=CCCC(C)=CCOC(=O)C1CCCCC1`: 34 to 35 °C. Under `CCC(NC(=O)C(CC(C)C)NC(=O)C(NC(=O)C(Cc1ccccc1C)NC(=O)C(CCC(=O)OC(C)(C)C)NC(=O)C(CC(=O)OC(C)(C)C)NC(=O)CCC(=O)OC(C)(C)C)C(C)(C)C)C(OC)OC` (X3-D(OtBu)E(OtBu)[Phe(2-Me)][Tle]L-X4; configuration not given here) stands 242 to 244 °C. Next, `CC(CCCCCCCCCCCCc1scc(Br)c1Br)C(=O)C(C)CCCCCCCCCCCCc1scc(Br)c1Br` (configuration not stated): 50 to 52 °C; `CC(=O)N1C(C)(C)CC(OC(=O)C(Cc2cc(C(C)(C)C)c(O)c(C(C)(C)C)c2)(Cc2cc(C(C)(C)C)c(O)c(C(C)(C)C)c2)C(=O)OC2CC(C)(C)N(C(C)=O)C(C)(C)C2)CC1(C)C`: 202 °C; `CCSC(=O)N(CC(C)C)CC(C)C`: 6 °C. On to `C=CCN(CC=C)c1nc(OC)nc(N(CCCCCCN(c2nc(OC)nc(N(CC=C)CC=C)n2)C2CC(C)(C)NC(C)(C)C2)C2CC(C)(C)NC(C)(C)C2)n1`, for which the melting point lay within 113 to 115 °C. Next, `COCCOCOc1cc(C(ON=C(C(=O)O)c2csc(NC(c3ccccc3)(c3ccccc3)c3ccccc3)n2)C(=O)OC(c2ccccc2)c2ccccc2)cc(C#N)c1OCOCCOC` (configuration not stated): 158 °C; `CCCCC(CC)C(=O)Cl` (configuration not stated): less than -75 °C; `COC(=O)Nc1cc(C(/C=C/c2c(OC)cc(OC)cc2OC)S(=O)(=O)C(/C=C/c2c(OC)cc(OC)cc2OC)c2ccc(OC)c(NC(=O)OC)c2)ccc1OC` (configuration not stated): 188 to 191 °C. Next, `CC(C)(C)OC(=O)NCc1ccc(CNC(=O)N2CCN(C(=O)CN3CCC(=O)N(CC(=O)N4CCN(C(=O)NCc5ccc(CNC(=O)OC(C)(C)C)cc5)CC4)CCC3=O)CC2)cc1`: 156 to 160 °C. Under `O=C(CN1CCN(C(=O)c2cc(C(F)(F)F)cc(C(F)(F)F)c2)[C@H](Cc2c[nH]c3ccccc23)C1)N1CCN(C(c2ccccc2)(c2ccccc2)c2ccccc2)CC1` stands 160 to 166 °C; under `O=C(Oc1cccc2c(OC(=O)c3ccc(OCc4ccccc4)cc3)c3c(OC(=O)c4ccc(OCc5ccccc5)cc4)cccc3cc12)c1ccc(OCc2ccccc2)cc1`, 240 to 242 °C. As to `CN(c1cccc2cc(C3=NCC(C(=O)N4CCOCC4)S3)[nH]c12)S(=O)(=O)c1cccs1` (configuration not stated), the melting point fell in the range of 238 to 239 °C.

`CCCCCCCCCCCCCCCCS(=O)(=O)Nc1cccc2ccc(O)c(NS(=O)(=O)c3ccc(NC(C)=O)c4c(O)c(N=Nc5ccccc5OC)ccc34)c12` came in with a melting point of 177 to 180 °C. Next, `COc1cc(COc2nn(-c3ccccc3)cc2/C=C/c2nc(N3CCN(C(=O)OC(C)(C)C)CC3)sc2C)ccc1OCc1nc(-c2ccc(CC(=O)O)cc2)oc1C`: 119 to 120 °C; `CCCC(=O)C(=CNc1ccc(COC(=O)c2ccccc2)cc1)C(=O)OCC`: 73 to 75 °C; `CCCCCCCCCCCCCCCCCCSCCOC1OC(COC(C)=O)C(OC2OC(COC(C)=O)C(OC3OC(COC(C)=O)C(OC(C)=O)C(OC(C)=O)C3OC(C)=O)C(OC(C)=O)C2OC(C)=O)C(OC(C)=O)C1N1C(=O)c2ccccc2C1=O` (configuration not stated): 150 to 152 °C. Next, `CC(=O)Oc1c(C)cc(Oc2ccc3nc(COc4ccc(CC5SC(=O)N(C(c6ccccc6)(c6ccccc6)c6ccccc6)C5=O)cc4)n(C)c3n2)c(C)c1C` (configuration not stated): 190 to 191 °C; `N=S(=O)(c1ccccc1)c1cccs1` (configuration not stated): 133 °C.

`CCOCc1nc2c(N)nc3cc(Br)ccc3c2n1CC1CCN(C(=O)CC(C)C)CC1` had a melting point of 199 to 200 °C.

With `CN=S(=O)(NC(=O)Nc1nc(OC)cc(OC)n1)c1ccccc1Br` (configuration not stated), the melting point was 120 to 125 °C. Next, `CS(C)(=O)=NC(=O)c1cc(Oc2ccc(C(F)(F)F)cc2Cl)ccc1[N+](=O)[O-]`: 122 °C.
